Assay [1] deals with BTK wildtype protein (Homo sapiens (Human), UniProt Q06187). Briefly: BTK wildtype HTRF displacement assay. The class given is binding. Particulars: 1-hour incubation; read-out: BTK (wt) IC50. In outline: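 Full-length N-terminal GST-tagged BTK incubated 1 h at room temperature with compound (6 doses, four-fold dilutions from 5 μM top) plus kinase tracer 239 and anti-GST-Tb antibody. Tracer displacement read as TR-FRET 665/620 ratio, background-subtracted using no-protein control. IC50 from four-parameter fit constrained 0–100% inhibition.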

For assay [2], the target named is BTK C481S protein (Homo sapiens (Human), UniProt Q06187, C481S). The assay can be described thus: BTK C481S HTRF displacement assay. In kind it is binding. Particulars: 1-hour incubation. In outline:
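N-terminal GST-tagged BTK C481S (2-659) incubated 1 hour at room temperature with compound (6 doses, four-fold from 5 μM), 50 nM kinase tracer 239 and anti-GST-Tb antibody. TR-FRET 665/620 ratio, background-subtracted; IC50 from constrained four-parameter fit. KI=IC50/(1+[Tracer]/Kd), tracer Kd 54 nM.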

Among the data in patent publication US20240294531A1, “COVALENT HETEROCYCLES AND USES THEREOF” (Kumquat Biosciences Inc., priority 2022, published 2024) are IC50 values, retold here.

A value given as a limit tells only on which side of the number the result lay.

Chain of BTK wildtype protein (Q06187 2-659): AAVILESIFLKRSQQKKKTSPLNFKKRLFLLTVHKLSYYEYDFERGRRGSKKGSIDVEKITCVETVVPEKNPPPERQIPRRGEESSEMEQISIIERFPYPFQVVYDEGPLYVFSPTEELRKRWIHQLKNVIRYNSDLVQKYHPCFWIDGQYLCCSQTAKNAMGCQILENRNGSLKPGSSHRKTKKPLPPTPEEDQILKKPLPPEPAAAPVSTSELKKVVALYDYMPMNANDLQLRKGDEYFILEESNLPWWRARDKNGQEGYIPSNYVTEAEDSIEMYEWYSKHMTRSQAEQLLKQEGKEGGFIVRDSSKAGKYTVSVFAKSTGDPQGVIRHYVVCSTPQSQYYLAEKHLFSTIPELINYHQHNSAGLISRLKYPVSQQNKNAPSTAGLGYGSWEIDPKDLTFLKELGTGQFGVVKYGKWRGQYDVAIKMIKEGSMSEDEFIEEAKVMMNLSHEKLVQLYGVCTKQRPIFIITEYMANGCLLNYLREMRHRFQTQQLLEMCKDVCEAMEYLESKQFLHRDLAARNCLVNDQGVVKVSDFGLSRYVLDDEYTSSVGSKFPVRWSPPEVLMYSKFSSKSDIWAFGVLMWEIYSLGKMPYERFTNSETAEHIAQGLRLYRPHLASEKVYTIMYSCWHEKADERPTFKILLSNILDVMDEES
Chain of BTK C481S protein (Q06187 2-659 C481S): as the sequence (Q06187 2-659) above, with C480S counted along it

`COc1ccc(F)cc1C(=O)NCc1ccc(-c2nn(C[C@@H]3CCCCN3C(=O)n3cncn3)c3[nH]c(=O)[nH]c(=O)c23)cc1` [Compound 164]: the IC50 in assay [1] and in assay [2] was at most 1 µM in each case.
Consider `NC(=O)c1c(-c2ccc(Oc3ccccc3)cc2)nn(C2CCC3(C2)CN(C(=O)n2cncn2)C3)c1N` (stereo not shown) [Compound 165, 1-(2-(1H-1,2,4-triazole-1-carbonyl)-2-azaspiro[3.4]octan-6-yl)-5-amino-3-(4-phenoxyphenyl)-1H-pyrazole-4-carboxamide], for which the IC50 in assay [1] and in assay [2] was at most 1 µM each time.
On to `CN(CCC1CCNc2c(-c3ccc(Oc4ccccc4)cc3)c(C(N)=O)nn21)C(=O)n1cncn1` (stereo not shown) [Compound 167, 7-(2-(N-methyl-1H-1,2,4-triazole-1-carboxamido)ethyl)-3-(4-phenoxy-phenyl)-4,5,6,7-tetrahydro-pyrazolo[1,5-a]pyrimidine-2-carboxamide], for which the IC50 in assay [1] and in assay [2] was above 1 µM each time.
In the case of `Cc1[nH]c2c(C(N)=O)cc(F)c(N3CCCC4(CCN4C(=O)n4cncn4)C3)c2c1C` (stereo not shown) [Compound 171, 4-(1-(1H-1,2,4-triazole-1-carbonyl)-1,6-diazaspiro[3.5]nonan-6-yl)-5-fluoro-2,3-dimethyl-1H-indole-7-carboxamide], the IC50 in assay [1] and in assay [2] was at most 1 µM throughout.
As for `COc1ccc(F)cc1C(=O)NCc1ccc(-c2nn(C(C)C3CCN(C(=O)n4cncn4)C3)c3ncnc(N)c23)cc1` (stereo not shown) [Compound 172, N-(4-(1-(1-(1-(1H-1,2,4-triazole-1-carbonyl)pyrrolidin-3-yl)ethyl)-4-amino-1H-pyrazolo[3,4-d]pyrimidin-3-yl)benzyl)-5-fluoro-2-methoxybenzamide], the IC50 in assay [1] and in assay [2] was at most 1 µM throughout.
Regarding `COc1ccc(F)cc1C(=O)NCc1ccc(-c2nn(C[C@H]3CCCC[C@H]3CN(C)C(=O)n3cncn3)c3ncnc(N)c23)cc1` [Compound 173, N-(((1R,2S)-2-((4-amino-3-(4-((5-fluoro-2-methoxybenzamido)methyl)phenyl)-1H-pyrazolo[3,4-d]pyrimidin-1-yl)methyl)cyclohexyl)methyl)-N-methyl-1H-1,2,4-triazole-1-carboxamide], the IC50 in assay [1] and in assay [2] was at most 1 µM in each case.
Consider `COc1ccc(F)cc1C(=O)NCc1ccc(-c2nn(CC3CCCCCN3C(=O)n3cncn3)c3ncnc(N)c23)cc1` (stereo not shown) [Compound 174, N-(4-(1-((1-(1H-1,2,4-triazole-1-carbonyl)azepan-2-yl)methyl)-4-amino-1H-pyrazolo[3,4-d]pyrimidin-3-yl)benzyl)-5-fluoro-2-methoxybenzamide], for which the IC50 in assay [1] and in assay [2] was above 1 µM throughout.
Turning to `NC(=O)c1cn(C[C@@H]2CCCCN2C(=O)n2cncn2)nc1-c1ccc(Oc2ccccc2)cc1` [Compound 175, (S)-1-((1-(1H-1,2,4-triazole-1-carbonyl)piperidin-2-yl)methyl)-3-(4-phenoxyphenyl)-1H-pyrazole-4-carboxamide], the IC50 in assay [1] and in assay [2] was above 1 µM each time.
On to `CCC(CN(C)C(=O)n1cncn1)n1nc(-c2ccc(CNC(=O)c3cc(F)ccc3OC)cc2)c2c(N)ncnc21` (stereo not shown) [Compound 176, N-(2-(4-amino-3-(4-((5-fluoro-2-methoxybenzamido)methyl)phenyl)-1H-pyrazolo[3,4-d]pyrimidin-1-yl)butyl)-N-methyl-1H-1,2,4-triazole-1-carboxamide], for which the IC50 in assay [1] and in assay [2] was above 1 µM in each case.
`COc1ccc(F)cc1C(=O)NCc1ccc(-c2nn(CC3CN(C)CCN3C(=O)n3cncn3)c3ncnc(N)c23)cc1` (stereo not shown) [Compound 178, N-(4-(4-amino-1-((4-methyl-1-(1H-1,2,4-triazole-1-carbonyl)piperazin-2-yl)methyl)-1H-pyrazolo[3,4-d]pyrimidin-3-yl)benzyl)-5-fluoro-2-methoxybenzamide]: the IC50 in assay [1] and in assay [2] was above 1 µM each time.
`CCN(C(=O)n1cncn1)C1CCC(n2nc(-c3ccc(Oc4ccccc4)cc3)c3c(N)ncnc32)C1` (stereo not shown) [Compound 179, N-(3-(4-amino-3-(4-phenoxyphenyl)-1H-pyrazolo[3,4-d]pyrimidin-1-yl)cyclopentyl)-N-ethyl-1H-1,2,4-triazole-1-carboxamide]: the IC50 in assay [1] and in assay [2] was at most 1 µM each time.
Take `COc1ccc(F)cc1C(=O)NCc1ccc(-c2nn(C3CCC3N(C)C(=O)n3cncn3)c3ncnc(N)c23)cc1` (stereo not shown) [Compound 181, N-(2-(4-amino-3-(4-((5-fluoro-2-methoxybenzamido)methyl)phenyl)-1H-pyrazolo[3,4-d]pyrimidin-1-yl)cyclobutyl)-N-methyl-1H-1,2,4-triazole-1-carboxamide]: the IC50 in assay [1] and in assay [2] was at most 1 µM in each case.
Consider `CN(C(=O)n1cncn1)[C@@H]1CCCC[C@H](n2nc(-c3ccc(Oc4ccccc4)cc3)c(C(N)=O)c2N)C1` [Compound 182, N-((1R,3S)-3-(5-amino-4-carbamoyl-3-(4-phenoxyphenyl)-1H-pyrazol-1-yl)cycloheptyl)-N-methyl-1H-1,2,4-triazole-1-carboxamide], for which the concentration for half-maximal inhibition (IC50) in assay [1] and in assay [2] was at most 1 µM in each case.
On to `CN(C(=O)n1cncn1)C1CCC(C2CCNc3c(C(N)=O)c(-c4ccc(Oc5ccccc5)cc4)nn32)C1` (stereo not shown) [Compound 183, 7-(3-(N-methyl-1H-1,2,4-triazole-1-carboxamido)cyclopentyl)-2-(4-phenoxyphenyl)-4,5,6,7-tetrahydropyrazolo[1,5-a] pyrimidine-3-carboxamide], for which the IC50 in assay [1] and in assay [2] was at most 1 µM each time.
As for `NC(=O)c1c(-c2ccc(Oc3ccccc3)cc2)nn(C[C@@H]2CCCCN2C(=O)n2cncn2)c1N` [Compound 184, (S)-1-((1-(1H-1,2,4-triazole-1-carbonyl)piperidin-2-yl)methyl)-5-amino-3-(4-phenoxyphenyl)-1H-pyrazole-4-carboxamide], the IC50 in assay [1] and in assay [2] was at most 1 µM each time.
As for `COc1ccc(F)cc1C(=O)NCc1ccc(-c2nn(C[C@H]3CCCCN3C(=O)n3cncn3)c3[nH]c(=O)[nH]c(=O)c23)cc1` [Compound 185, (R)-N-(4-(1-((1-(1H-1,2,4-triazole-1-carbonyl)piperidin-2-yl)methyl)-4,6-dioxo-4,5,6,7-tetrahydro-1H-pyrazolo[3,4-d]pyrimidin-3-yl)benzyl)-5-fluoro-2-methoxybenzamide], the IC50 in assay [1] was above 1 µM; in assay [2], at most 1 µM.
With `COc1ccc(F)cc1C(=O)NCc1ccc(-c2nn(CC(N(C)C(=O)n3cncn3)C(F)(F)F)c(N)c2C(N)=O)cc1` (stereo not shown) [Compound 186, N-(3-(5-amino-4-carbamoyl-3-(4-((5-fluoro-2-methoxybenzamido)methyl)phenyl)-1H-pyrazol-1-yl)-1,1,1-trifluoropropan-2-yl)-N-methyl-1H-1,2,4-triazole-1-carboxamide], the IC50 in assay [1] and in assay [2] was at most 1 µM throughout.
On to `COc1ccc(F)cc1C(=O)NCc1ccc(-c2nn(-c3cccc(N(C)C(=O)n4cncn4)c3)c3ncnc(N)c23)cc1` [Compound 187, N-(3-(4-amino-3-(4-((5-fluoro-2-methoxybenzamido)methyl)phenyl)-1H-pyrazolo[3,4-d]pyrimidin-1-yl)phenyl)-N-methyl-1H-1,2,4-triazole-1-carboxamide], for which the concentration for half-maximal inhibition (IC50) in assay [1] and in assay [2] was at most 1 µM each time.
Consider `COc1ccc(F)cc1C(=O)NCc1ccc(-c2nn(C3(CN(C)C(=O)n4cncn4)CC3)c3ncnc(N)c23)cc1` [Compound 188, N-((1-(4-amino-3-(4-((5-fluoro-2-methoxybenzamido)methyl)phenyl)-1H-pyrazolo[3,4-d]pyrimidin-1-yl)cyclopropyl)methyl)-N-methyl-1H-1,2,4-triazole-1-carboxamide], for which the IC50 in assay [1] was at most 1 µM; in assay [2], above 1 µM.
Take `COc1ccc(F)cc1C(=O)NCc1ccc(-c2nn(-c3cccc(CN(C)C(=O)n4cncn4)c3)c3ncnc(N)c23)cc1` [Compound 191, N-(3-(4-amino-3-(4-((5-fluoro-2-methoxybenzamido)methyl)phenyl)-1H-pyrazolo[3,4-d]pyrimidin-1-yl)benzyl)-N-methyl-1H-1,2,4-triazole-1-carboxamide]: the IC50 in assay [1] and in assay [2] was at most 1 µM in each case.
On to `CN(C(=O)n1cncn1)C1CCCN(c2ncnc3[nH]ccc23)C1` (stereo not shown) [Compound 192, N-(1-(7H-pyrrolo[2,3-d]pyrimidin-4-yl)piperidin-3-yl)-N-methyl-1H-1,2,4-triazole-1-carboxamide], for which the IC50 in assay [1] and in assay [2] was above 1 µM throughout.
In the case of `COc1ccc(F)cc1C(=O)NCc1ccc(-c2nn(C[C@H]3CCCC[C@@H]3CN(C)C(=O)n3cncn3)c3ncnc(N)c23)cc1` [Compound 193, N-(((1S,2S)-2-((4-amino-3-(4-((5-fluoro-2-methoxybenzamido)methyl)phenyl)-1H-pyrazolo [3,4-d]pyrimidin-1-yl)methyl)cyclohexyl)methyl)-N-methyl-1H-1,2,4-triazole-1-carboxamide], the IC50 in assay [1] and in assay [2] was at most 1 µM in each case.
Take `COc1ccc(F)cc1C(=O)NCc1ccc(-c2nn(C(CCN(C)C(=O)n3cncn3)Cc3ccccc3)c3ncnc(N)c23)cc1` (stereo not shown) [Compound 195, N-(3-(4-amino-3-(4-((5-fluoro-2-methoxybenzamido)methyl)phenyl)-1H-pyrazolo[3,4-d]pyrimidin-1-yl)-4-phenylbutyl)-N-methyl-1H-1,2,4-triazole-1-carboxamide]: the IC50 in assay [1] and in assay [2] was above 1 µM in each case.
